These results are taken from US12527808B2, “Compounds useful to treat pain” (Amneal Pharmaceuticals LLC, priority 2019, dated 2026).

Assay [1] concerns the target T1, Bradykinin B2 Receptor (Homo sapiens, UniProt P30411).
T1 construct: purchased; host or cells: transiently transfected CHO-K1 cells (membranes)
T1 sequence (P30411 1-391): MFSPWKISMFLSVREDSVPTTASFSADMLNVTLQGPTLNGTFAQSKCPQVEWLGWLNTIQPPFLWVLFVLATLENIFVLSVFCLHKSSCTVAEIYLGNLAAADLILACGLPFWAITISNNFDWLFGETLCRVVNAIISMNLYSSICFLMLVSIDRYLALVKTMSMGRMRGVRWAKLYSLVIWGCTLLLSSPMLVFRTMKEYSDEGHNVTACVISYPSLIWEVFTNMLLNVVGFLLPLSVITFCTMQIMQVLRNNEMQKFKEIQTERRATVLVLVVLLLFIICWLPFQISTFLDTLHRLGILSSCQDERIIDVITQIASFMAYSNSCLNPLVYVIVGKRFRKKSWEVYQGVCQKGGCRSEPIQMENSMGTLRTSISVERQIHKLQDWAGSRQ
The assay is described as follows: Radioligand binding assay for bradykinin B2 receptor. The method, then: (§1) Example 10: Radioligand Binding Assay for Bradykinin B1 and B2 Receptor
(§2) Bradykinin receptor membrane (B1 & B2) was procured from commercial source. Competitive radioligand binding assay was done by filtration-based technique using membranes prepared from transiently transfected Chinese hamster ovary (CHO)—K1 cells. Briefly, different concentrations of Phenazopyridine (compound I-A) was added to 96 wells plate containing bradykinin membrane along with required controls. The assay plate was harvested onto a GF/B Unifier harvester plate and washed with cold wash buffer. Plate was dried in oven for 15 mins at 60° C. The membrane activity was analyzed based on the readout using MicroBeta from Perkin Elmer in Counts Per Minute (CPM). Percent inhibition of Bradykinin receptor activity was calculated at each concentration and summarized in the results.

Assay [2] addresses T2, Bradykinin B1 Receptor (Homo sapiens, UniProt P46663).
T2 construct: purchased; host or cells: transiently transfected CHO-K1 cells (membranes)
T2 sequence (P46663 1-353): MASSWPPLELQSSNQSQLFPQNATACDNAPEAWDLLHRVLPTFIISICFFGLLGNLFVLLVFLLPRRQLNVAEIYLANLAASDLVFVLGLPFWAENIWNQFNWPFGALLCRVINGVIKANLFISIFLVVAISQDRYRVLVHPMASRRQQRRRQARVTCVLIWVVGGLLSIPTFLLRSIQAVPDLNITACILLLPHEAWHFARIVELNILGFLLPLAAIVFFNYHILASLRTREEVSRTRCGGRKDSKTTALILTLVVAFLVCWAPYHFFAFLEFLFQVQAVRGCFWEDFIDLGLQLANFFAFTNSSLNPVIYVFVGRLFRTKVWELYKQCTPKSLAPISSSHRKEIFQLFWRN
The assay is described as follows: Radioligand binding assay for bradykinin B1 receptor. On the procedure:
as §1, §2

By inhibition is commonly meant the relative decrease from the control value, in per cent. Low values mean a response near the control, high ones a response far below the control. Consider `Nc1ccc(/N=N/c2ccccc2)c(N)n1` [Phenazopyridine], for which, in assay [1] (0.03 μM), at 0.03 µM the inhibition was 6%. For the same compound, the inhibition at 0.1 µM in assay [1] (0.10 μM) amounted to 13%. The same compound yielded an inhibition at 0.32 µM in assay [1] (0.32 μM) of 10%. The inhibition at 1 µM in assay [1] (1.00 μM) was found to be 37%; in assay [2] (1.00 μM), 12%. Also, in assay [1] (3.17 μM), the inhibition at 3.17 µM was 38%. The inhibition at 10.01 µM in assay [1] (10.01 μM) is 59%; in assay [2] (10.01 μM), 49%. For the same compound, 31.65 µM produced 78% inhibition in assay [1] (31.65 μM). The figures for the inhibition at 100 µM in assay [1] (100.00 μM) and in assay [2] (100.00 μM) were 98% and 81%, respectively.
